From patent US11834434B2, “Substituted 2-heteroaryloxypyridines and salts thereof and their use as herbicidal agents” (Bayer Aktiengesellschaft, priority 2018, dated 2023)

Columns and labels:
Assay type in all cases: in vivo
Poa annua (POAAN) [1] = experiment: Post-emergence herbicidal action against Poa annua; conditions: 1280 g/ha; rated visually after about 3 weeks vs untreated controls; 100% = plants have died, 0% = like control plants
Description: (§1) Seeds of mono- and dicotyledonous weed plants were placed in plastic pots in sandy loam soil (doubly sown with in each case one species of mono- or dicotyledonous weed plants per pot), covered with soil and cultivated in a greenhouse under controlled growth conditions. 2 to 3 weeks after sowing, the test plants were treated at the one-leaf stage. The compounds of the invention, formulated in the form of wettable powders (WP) or as emulsion concentrates (EC), were applied onto the green parts of the plants as aqueous suspension or emulsion with addition of 0.5% additive at a water application rate of 600 liters per hectare (converted). After the test plants had been kept in the greenhouse under optimum growth conditions for about 3 weeks, the activity of the preparations was rated visually in comparison to untreated controls. For example, 100% activity=the plants have died, 0% activity=like control plants. Tables B1 to B8 below show the effects of selected compounds of the general formula (I) according to Table 1 on various harmful plants and an application rate corresponding to 1280 g/ha, which were obtained by the experimental procedure mentioned above.

Lolium rigidum (LOLRI) = experiment: Pre-emergence herbicidal action against Lolium rigidum; conditions: 1280 g/ha; scored visually after about 3 weeks vs untreated controls; 100% = plants have died, 0% = like control plants
Excerpt: (§2) Seeds of mono- and dicotyledonous weed plants were placed in plastic pots in sandy loam soil (doubly sown with in each case one species of mono- or dicotyledonous weed plants per pot) and covered with soil. The compounds of the invention, formulated in the form of wettable powders (WP) or as emulsion concentrates (EC), were then applied onto the surface of the covering soil as aqueous suspension or emulsion with addition of 0.5% additive at a water application rate of 600 liters per hectare (converted). After the treatment, the pots were placed in a greenhouse and kept under good growth conditions for the test plants. After about 3 weeks, the effect of the preparations was scored visually in comparison with untreated controls as percentages. For example, 100% activity=the plants have died, 0% activity=like control plants. Tables C1 to C8 below show the effects of selected compounds of the general formula (I) according to Table 1 on various harmful plants and an application rate corresponding to 1280 g/ha, which were obtained by the experimental procedure mentioned above.

[2] = test system: Amaranthus retroflexus (AMARE); experiment: Pre-emergence herbicidal action against Amaranthus retroflexus; conditions: 1280 g/ha; scored visually after about 3 weeks vs untreated controls; 100% = plants have died, 0% = like control plants
Excerpt: as §2

[3] = test system: Echinochloa crus-galli (ECHCG); experiment: Pre-emergence herbicidal action against Echinochloa crus-galli; conditions: 1280 g/ha; scored visually after about 3 weeks vs untreated controls; 100% = plants have died, 0% = like control plants
Excerpt: as §2

Stellaria media (STEME) [4] = experiment: Post-emergence herbicidal action against Stellaria media; conditions: 1280 g/ha; rated visually after about 3 weeks vs untreated controls; 100% = plants have died, 0% = like control plants
Description: as §1

[5] = test system: Amaranthus retroflexus (AMARE); experiment: Post-emergence herbicidal action against Amaranthus retroflexus; conditions: 1280 g/ha; rated visually after about 3 weeks vs untreated controls; 100% = plants have died, 0% = like control plants
Description: as §1

Poa annua (POAAN) [6] = experiment: Pre-emergence herbicidal action against Poa annua; conditions: 1280 g/ha; scored visually after about 3 weeks vs untreated controls; 100% = plants have died, 0% = like control plants
Excerpt: as §2

Stellaria media (STEME) [7] = experiment: Pre-emergence herbicidal action against Stellaria media; conditions: 1280 g/ha; scored visually after about 3 weeks vs untreated controls; 100% = plants have died, 0% = like control plants
Excerpt: as §2

Setaria viridis (SETVI) = experiment: Pre-emergence herbicidal action against Setaria viridis; conditions: 1280 g/ha; scored visually after about 3 weeks vs untreated controls; 100% = plants have died, 0% = like control plants
Excerpt: as §2

[8] = test system: Matricaria inodora (MATIN); experiment: Pre-emergence herbicidal action against Matricaria inodora; conditions: 1280 g/ha; scored visually after about 3 weeks vs untreated controls; 100% = plants have died, 0% = like control plants
Excerpt: as §2

[9] = test system: Abutilon theophrasti (ABUTH); experiment: Post-emergence herbicidal action against Abutilon theophrasti; conditions: 1280 g/ha; rated visually after about 3 weeks vs untreated controls; 100% = plants have died, 0% = like control plants
Description: as §1

[10] = test system: Abutilon theophrasti (ABUTH); experiment: Pre-emergence herbicidal action against Abutilon theophrasti; conditions: 1280 g/ha; scored visually after about 3 weeks vs untreated controls; 100% = plants have died, 0% = like control plants
Excerpt: as §2

| SMILES | Post-emergence action against Poa annua (POAAN) (Poa annua (POAAN) [1]) [%] | Pre-emergence action against Lolium rigidum (LOLRI) (Lolium rigidum (LOLRI)) [%] | Pre-emergence action against Amaranthus retroflexus (AMARE) [2] [%] | Pre-emergence action against Echinochloa crus-galli (ECHCG) [3] [%] | Post-emergence action against Stellaria media (STEME) (Stellaria media (STEME) [4]) [%] | Post-emergence action against Amaranthus retroflexus (AMARE) [5] [%] | Pre-emergence action against Poa annua (POAAN) (Poa annua (POAAN) [6]) [%] | Pre-emergence action against Stellaria media (STEME) (Stellaria media (STEME) [7]) [%] | Pre-emergence action against Setaria viridis (SETVI) (Setaria viridis (SETVI)) [%] | Pre-emergence action against Matricaria inodora (MATIN) [8] [%] | Post-emergence action against Abutilon theophrasti (ABUTH) [9] [%] | Pre-emergence action against Abutilon theophrasti (ABUTH) [10] [%] |
| --- | --- | --- | --- | --- | --- | --- | --- | --- | --- | --- | --- | --- |
| Cc1cc(C)c(Cc2ccc(Cl)cc2)c(Oc2ncc(F)cn2)n1 [Example I-482] | 100 | 100 | 100 | 100 | 100 | 100 | 100 | 100 | 100 | 100 | 90 | 100 |
| Cc1cc(C)c(Cc2ccc(Cl)c(F)c2)c(Oc2ncc(F)cn2)n1 [Example I-485] | 90 | 90 | 100 | 90 | 100 | 100 | 100 | 100 | 100 | 100 | 90 | 100 |
| Cc1ccc(Oc2ccccc2)c(Oc2ncc(F)cn2)n1 [Example I-511] | 100 | 90 | 100 | 100 | 100 | 100 | 100 | 100 | 100 | 100 | 90 | 100 |
| COc1c(F)ccc(Cc2c(C)cc(C)nc2Oc2ncc(F)cn2)c1F [Example I-488] | 90 | 100 | 100 | 100 | 100 | 100 | 100 | 100 | 100 | 100 | 100 | 100 |
| COc1cc(Oc2ccc(C)nc2Oc2ncc(F)cn2)ccc1F [Example I-520] |  | 100 | 100 |  |  | 100 | 100 | 100 | 90 | 100 | 90 | 90 |
| Fc1cnc(Oc2ncccc2Sc2ccc(F)cc2F)nc1 [Example I-156] |  |  | 100 |  | 100 | 100 | 100 | 100 | 90 | 90 | 100 |  |
| Cc1ccc(Cc2c(C)cc(C)nc2Oc2ncc(F)cn2)cc1 [Example I-486] | 100 | 90 | 100 | 100 | 100 | 90 | 100 | 100 | 100 |  | 90 | 100 |
| Cc1ccc(Cc2ccccc2)c(Oc2ncc(F)cn2)n1 [Example I-430] | 90 | 90 | 100 | 100 | 100 | 90 | 100 | 100 | 100 | 100 |  | 100 |
| Cc1ccc(Cc2ccccc2)c(Oc2ncc(Cl)cn2)n1 [Example I-397] | 100 | 100 | 90 | 100 | 100 |  | 100 | 100 | 100 | 100 | 90 | 100 |
